One compound from US20100040667A1, “METHOD OF TREATING BONE CANCER” (ED. GEISTLICH SOEHNE AG FUER CHEMISCHE INDUSTRIE, priority 2006, published 2010) can be followed below.

Structures are written as SMILES.

The test system of data set [1] is osteosarcoma cell lines SAOS-2 (HTB-85), U2OS (HTB-96), HOS, 143B, LM5, Hu09 WT, Hu09H3, Hu09 L13, MG-63 and MG-63 M8. The experiment in a line: Taurolidine tested against 10 osteosarcoma cell lines. The class given is cell-based. How it is done:
Taurolidine was tested against 10 oestosarcoma cell lines at concentrations of 50, 100 and 200 uM taurolidine. The cell lines were SAOS-2 (HTB-85), U2OS (HTB-96), HOS, 143B, LM5, Hu09 WT, Hu09H3, Hu09 L13, MG-63 and MG-63 M8.

Data set [2] can be described thus: Solubility of taurolidine in water. The class given is physicochemical. The settings on record: room temperature. From the text: The preferred active substances are methylol transfer agents such as taurolidine, taurultam, mixtures thereof or equilibriums thereof. Where taurolidine and/or taurultam is used, its concentration in the aqueous solution absorbed in the gel is preferably 0.5% to 5% by weight, e.g. about 1 to 4%. Where the gel is in the form of a granulate, 2-4% by weight taurolidine and/or taurultam is preferred, more preferably, 4% taurolidine and/or taurultam by weight. Taurolidine is only about 2-3% soluble in water at room temperature, so that at higher concentrations, some material will be present as a suspension of, for example, fine taurolidine crystals.

Consider `O=S1(=O)CCN(CN2CCS(=O)(=O)NC2)CN1` [Taurolidine, taurolidine], for which the apoptotic cells result in data set [1] (50, 100 and 200 uM taurolidine) is recorded as “dose-dependent increase in apoptic cells”. For the same compound, the “inhibition of osteosarcoma cell lines” value in data set [1] (50, 100 and 200 uM taurolidine, 10 cell lines) is “inhibited all osteosarcoma cell lines tested”. For the same compound, the mechanism of apoptosis entry in data set [1] (osteosarcoma cell lines) is “caspase-dependent”. Besides, the soluble in water in data set [2] is 2-3%.
